Measured values as given in ChEMBL document CHEMBL5653615 (J Biol Chem, 2013).
One block for each molecule: values may come before it. The source made the active and inactive calls. No cut-off for these calls is given here.

Assays:
[1] = tested on: CHO-K1; assay: Inhibition of Insulin receptor M1153L mutant (unknown origin) transfected in CHO-K1 cell lysate at 10 uM for 30 mins on ice followed by insulin stimulation for 10 mins by Western blot analysis; type: subcellular; details: Homo sapiens, time 40.0 min
[2] = Inhibition of tri-phosphorylated human Insulin receptor (978 to 1283 residues) C981S mutant kinase domain expressed in baculovirus infected Sf9 cells incubated for 1 hr by [gamma-33P]ATP assay
[3] = target: Insulin receptor (Homo sapiens) (UniProt P06213); assay: Inhibition of wild-type human Insulin receptor autophosphorylation in CHO-K1 cell lysate at 10 uM for 30 mins on ice followed by insulin stimulation for 10 mins by Western blot analysis; type: subcellular; details: time 40.0 min
[4] = target: NT-3 growth factor receptor (Homo sapiens) (UniProt Q16288); assay: Inhibition of human TRKC at 18.6 nM by HotSpot assay relative to control
[5] = target: T1, Testis-specific serine/threonine-protein kinase 1 (Homo sapiens) (UniProt Q9BXA7); assay: Inhibition of human TSSK1 at 18.6 nM by HotSpot assay relative to control
T1 sequence (whole entry): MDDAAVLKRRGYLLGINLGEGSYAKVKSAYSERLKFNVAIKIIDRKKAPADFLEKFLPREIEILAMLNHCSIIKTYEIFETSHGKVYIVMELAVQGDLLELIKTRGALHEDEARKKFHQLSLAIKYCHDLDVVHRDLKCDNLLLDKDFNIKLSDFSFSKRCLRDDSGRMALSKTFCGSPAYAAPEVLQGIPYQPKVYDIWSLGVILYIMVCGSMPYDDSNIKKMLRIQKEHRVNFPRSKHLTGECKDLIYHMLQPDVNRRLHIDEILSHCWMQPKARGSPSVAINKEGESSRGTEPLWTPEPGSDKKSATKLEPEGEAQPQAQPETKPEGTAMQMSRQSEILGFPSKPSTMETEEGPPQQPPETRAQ

[6] = target: T2, Serine/threonine-protein kinase Sgk1 (Homo sapiens) (UniProt O00141); assay: Inhibition of human SGK1 at 18.6 nM by HotSpot assay relative to control
T2 sequence (whole entry): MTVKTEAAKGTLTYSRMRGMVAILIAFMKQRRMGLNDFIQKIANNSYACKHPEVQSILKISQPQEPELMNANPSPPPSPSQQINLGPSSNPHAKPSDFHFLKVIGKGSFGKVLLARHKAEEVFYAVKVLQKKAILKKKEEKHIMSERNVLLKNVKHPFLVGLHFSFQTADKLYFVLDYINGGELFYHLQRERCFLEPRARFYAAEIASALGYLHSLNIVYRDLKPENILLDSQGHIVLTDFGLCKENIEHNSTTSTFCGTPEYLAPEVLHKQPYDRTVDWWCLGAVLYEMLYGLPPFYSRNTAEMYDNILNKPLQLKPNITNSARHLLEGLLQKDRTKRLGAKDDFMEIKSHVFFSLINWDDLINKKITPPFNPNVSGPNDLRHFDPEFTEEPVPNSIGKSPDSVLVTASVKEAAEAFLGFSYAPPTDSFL

[7] = target: Serine/threonine-protein kinase Nek6 (Homo sapiens) (UniProt Q9HC98); assay: Inhibition of human NEK6 at 18.6 nM by HotSpot assay relative to control
[8] = target: SRSF protein kinase 3 (Homo sapiens) (UniProt Q9UPE1); assay: Inhibition of human STK23 at 18.6 nM by HotSpot assay relative to control
[9] = target: Serine/threonine-protein kinase PAK 2 (Homo sapiens) (UniProt Q13177); assay: Inhibition of human PAK2 at 1.82 nM by HotSpot assay relative to control
[10] = target: Macrophage-stimulating protein receptor (Homo sapiens) (UniProt Q04912); assay: Inhibition of human MST1R at 1.82 nM by HotSpot assay relative to control
[11] = target: CDK9/cyclin T1 (Homo sapiens) (UniProt O60563+P50750); assay: Inhibition of human CDK9/cyclin T1 at 1.82 nM by HotSpot assay relative to control; type: protein-complex assay
[12] = target: Protein-tyrosine kinase 2-beta (Homo sapiens) (UniProt Q14289); assay: Inhibition of human PYK2 at 1.82 nM by HotSpot assay relative to control
[13] = target: Ribosomal protein S6 kinase alpha-5 (Homo sapiens) (UniProt O75582); assay: Inhibition of human RPS6KA5 at 1.82 nM by HotSpot assay relative to control
[14] = target: T3, Ephrin type-A receptor 3 (Homo sapiens) (UniProt P29320); assay: Inhibition of human EPHA3 at 1.82 nM by HotSpot assay relative to control
T3 sequence (whole entry): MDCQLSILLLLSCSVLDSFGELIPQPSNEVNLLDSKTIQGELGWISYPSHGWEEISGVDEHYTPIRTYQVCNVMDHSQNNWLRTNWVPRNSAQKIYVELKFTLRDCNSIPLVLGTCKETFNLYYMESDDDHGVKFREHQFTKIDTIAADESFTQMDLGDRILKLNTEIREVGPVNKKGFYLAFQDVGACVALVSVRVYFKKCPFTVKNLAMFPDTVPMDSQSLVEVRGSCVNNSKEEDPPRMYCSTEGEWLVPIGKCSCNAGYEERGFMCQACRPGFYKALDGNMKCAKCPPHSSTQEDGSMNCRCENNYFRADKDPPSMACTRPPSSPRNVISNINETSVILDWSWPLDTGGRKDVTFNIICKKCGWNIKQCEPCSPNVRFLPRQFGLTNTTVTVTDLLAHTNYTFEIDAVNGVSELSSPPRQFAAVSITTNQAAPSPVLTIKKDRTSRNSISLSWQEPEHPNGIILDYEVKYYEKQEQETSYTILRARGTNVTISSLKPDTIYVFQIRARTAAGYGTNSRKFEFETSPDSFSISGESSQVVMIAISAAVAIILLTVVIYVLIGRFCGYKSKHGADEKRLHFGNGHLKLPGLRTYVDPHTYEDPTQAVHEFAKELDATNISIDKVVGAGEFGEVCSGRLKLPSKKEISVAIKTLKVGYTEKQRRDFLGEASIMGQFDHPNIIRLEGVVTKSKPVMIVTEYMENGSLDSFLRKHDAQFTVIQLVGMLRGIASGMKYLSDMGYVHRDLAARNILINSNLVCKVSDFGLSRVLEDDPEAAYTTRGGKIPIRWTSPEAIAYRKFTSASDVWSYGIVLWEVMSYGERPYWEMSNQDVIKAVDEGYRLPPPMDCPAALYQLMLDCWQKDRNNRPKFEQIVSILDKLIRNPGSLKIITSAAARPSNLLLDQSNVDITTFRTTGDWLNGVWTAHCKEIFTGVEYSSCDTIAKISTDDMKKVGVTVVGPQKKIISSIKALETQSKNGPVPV

SRSF protein kinase 3 (Homo sapiens), sequence (Q9UPE1 whole entry): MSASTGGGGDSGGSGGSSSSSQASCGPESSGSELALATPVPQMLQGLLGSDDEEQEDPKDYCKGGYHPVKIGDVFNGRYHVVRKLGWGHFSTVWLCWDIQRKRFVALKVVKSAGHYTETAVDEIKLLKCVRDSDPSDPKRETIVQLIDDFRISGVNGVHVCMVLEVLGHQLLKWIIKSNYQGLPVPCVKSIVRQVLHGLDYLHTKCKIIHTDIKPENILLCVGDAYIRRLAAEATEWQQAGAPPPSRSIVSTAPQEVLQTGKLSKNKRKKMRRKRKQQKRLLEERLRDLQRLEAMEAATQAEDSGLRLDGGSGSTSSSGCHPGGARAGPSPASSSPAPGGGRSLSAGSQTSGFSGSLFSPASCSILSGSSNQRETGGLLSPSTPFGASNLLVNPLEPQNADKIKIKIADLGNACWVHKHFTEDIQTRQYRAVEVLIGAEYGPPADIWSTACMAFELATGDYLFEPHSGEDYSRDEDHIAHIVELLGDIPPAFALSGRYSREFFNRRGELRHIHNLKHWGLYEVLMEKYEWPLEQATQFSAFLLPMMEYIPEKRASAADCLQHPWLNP
Macrophage-stimulating protein receptor (Homo sapiens), sequence (Q04912 25-304 limits assumed): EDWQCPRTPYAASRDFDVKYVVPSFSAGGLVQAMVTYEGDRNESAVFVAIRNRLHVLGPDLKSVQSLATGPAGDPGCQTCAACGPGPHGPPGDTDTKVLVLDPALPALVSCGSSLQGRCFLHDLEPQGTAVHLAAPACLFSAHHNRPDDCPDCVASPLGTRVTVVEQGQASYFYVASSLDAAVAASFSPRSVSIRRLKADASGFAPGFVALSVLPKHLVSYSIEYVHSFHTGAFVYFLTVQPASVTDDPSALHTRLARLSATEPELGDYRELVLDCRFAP
Macrophage-stimulating protein receptor (Homo sapiens), sequence (Q04912 310-1400 limits assumed): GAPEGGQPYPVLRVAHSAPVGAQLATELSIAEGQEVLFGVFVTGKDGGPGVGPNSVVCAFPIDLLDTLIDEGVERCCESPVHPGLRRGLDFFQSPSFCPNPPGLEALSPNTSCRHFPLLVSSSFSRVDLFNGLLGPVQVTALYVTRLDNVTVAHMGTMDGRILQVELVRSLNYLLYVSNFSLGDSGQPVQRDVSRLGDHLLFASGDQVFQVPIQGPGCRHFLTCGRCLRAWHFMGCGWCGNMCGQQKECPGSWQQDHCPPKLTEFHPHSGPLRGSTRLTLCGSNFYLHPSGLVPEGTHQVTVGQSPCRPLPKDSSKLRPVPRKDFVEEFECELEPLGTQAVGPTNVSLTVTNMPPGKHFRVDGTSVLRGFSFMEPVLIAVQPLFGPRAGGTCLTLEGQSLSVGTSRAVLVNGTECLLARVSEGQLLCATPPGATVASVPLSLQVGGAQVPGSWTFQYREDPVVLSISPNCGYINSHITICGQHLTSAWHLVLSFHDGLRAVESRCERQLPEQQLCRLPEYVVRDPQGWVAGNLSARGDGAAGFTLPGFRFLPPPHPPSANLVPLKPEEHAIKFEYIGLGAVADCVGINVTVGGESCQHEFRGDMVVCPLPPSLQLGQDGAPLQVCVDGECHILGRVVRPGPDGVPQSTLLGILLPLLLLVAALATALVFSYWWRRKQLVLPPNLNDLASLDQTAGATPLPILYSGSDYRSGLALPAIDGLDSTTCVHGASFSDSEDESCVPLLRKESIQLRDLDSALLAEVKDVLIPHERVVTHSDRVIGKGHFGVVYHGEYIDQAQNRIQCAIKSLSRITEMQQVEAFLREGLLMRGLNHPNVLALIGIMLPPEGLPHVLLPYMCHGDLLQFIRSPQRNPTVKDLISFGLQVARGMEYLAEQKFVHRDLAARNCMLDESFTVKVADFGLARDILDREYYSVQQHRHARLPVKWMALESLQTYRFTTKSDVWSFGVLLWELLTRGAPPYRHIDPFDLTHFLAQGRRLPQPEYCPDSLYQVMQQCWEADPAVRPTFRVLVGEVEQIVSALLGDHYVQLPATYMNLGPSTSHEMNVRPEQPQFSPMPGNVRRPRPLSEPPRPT
Ribosomal protein S6 kinase alpha-5 (Homo sapiens), sequence (O75582 whole entry, looked up): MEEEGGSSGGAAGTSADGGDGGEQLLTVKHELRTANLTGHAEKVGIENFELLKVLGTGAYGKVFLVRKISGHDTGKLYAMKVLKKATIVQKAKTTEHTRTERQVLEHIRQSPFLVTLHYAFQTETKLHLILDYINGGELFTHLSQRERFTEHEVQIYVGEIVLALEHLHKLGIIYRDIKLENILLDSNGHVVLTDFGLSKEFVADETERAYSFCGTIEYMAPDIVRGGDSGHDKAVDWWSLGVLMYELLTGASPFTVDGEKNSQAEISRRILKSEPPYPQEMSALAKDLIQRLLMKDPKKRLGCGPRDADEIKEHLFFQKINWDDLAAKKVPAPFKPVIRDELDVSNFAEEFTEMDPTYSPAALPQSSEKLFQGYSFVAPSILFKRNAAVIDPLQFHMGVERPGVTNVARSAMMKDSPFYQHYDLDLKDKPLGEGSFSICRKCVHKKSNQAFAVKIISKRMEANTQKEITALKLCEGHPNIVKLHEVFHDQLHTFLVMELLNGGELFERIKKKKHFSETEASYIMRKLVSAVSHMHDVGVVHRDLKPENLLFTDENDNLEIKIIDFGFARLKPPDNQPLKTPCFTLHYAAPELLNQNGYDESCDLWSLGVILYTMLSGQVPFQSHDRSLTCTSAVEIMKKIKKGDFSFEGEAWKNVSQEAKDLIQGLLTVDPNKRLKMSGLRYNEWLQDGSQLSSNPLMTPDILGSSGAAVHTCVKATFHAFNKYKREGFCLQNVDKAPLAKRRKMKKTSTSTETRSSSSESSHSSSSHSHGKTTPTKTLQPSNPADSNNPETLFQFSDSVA
Insulin receptor (Homo sapiens), sequence (P06213 28-758 limits assumed): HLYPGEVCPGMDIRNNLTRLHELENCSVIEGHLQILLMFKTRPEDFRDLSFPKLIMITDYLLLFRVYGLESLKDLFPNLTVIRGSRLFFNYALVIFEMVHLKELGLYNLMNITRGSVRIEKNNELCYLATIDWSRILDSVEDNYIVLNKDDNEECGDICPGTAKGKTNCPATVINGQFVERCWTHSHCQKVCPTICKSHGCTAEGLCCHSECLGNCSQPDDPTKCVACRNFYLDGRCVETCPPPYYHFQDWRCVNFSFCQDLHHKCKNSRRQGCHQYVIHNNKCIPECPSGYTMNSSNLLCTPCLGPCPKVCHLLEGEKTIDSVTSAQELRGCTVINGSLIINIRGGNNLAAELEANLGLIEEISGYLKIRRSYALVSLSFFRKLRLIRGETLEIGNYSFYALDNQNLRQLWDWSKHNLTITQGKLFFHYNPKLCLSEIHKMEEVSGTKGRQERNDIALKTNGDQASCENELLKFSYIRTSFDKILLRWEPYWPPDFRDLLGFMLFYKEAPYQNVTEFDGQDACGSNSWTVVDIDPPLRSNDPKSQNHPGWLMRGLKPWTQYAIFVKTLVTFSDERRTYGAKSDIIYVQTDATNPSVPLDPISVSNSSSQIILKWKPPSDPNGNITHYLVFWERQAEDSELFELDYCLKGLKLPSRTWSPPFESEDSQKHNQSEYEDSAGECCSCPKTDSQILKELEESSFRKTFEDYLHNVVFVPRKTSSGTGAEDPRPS
Insulin receptor (Homo sapiens), sequence (P06213 763-1382 limits assumed): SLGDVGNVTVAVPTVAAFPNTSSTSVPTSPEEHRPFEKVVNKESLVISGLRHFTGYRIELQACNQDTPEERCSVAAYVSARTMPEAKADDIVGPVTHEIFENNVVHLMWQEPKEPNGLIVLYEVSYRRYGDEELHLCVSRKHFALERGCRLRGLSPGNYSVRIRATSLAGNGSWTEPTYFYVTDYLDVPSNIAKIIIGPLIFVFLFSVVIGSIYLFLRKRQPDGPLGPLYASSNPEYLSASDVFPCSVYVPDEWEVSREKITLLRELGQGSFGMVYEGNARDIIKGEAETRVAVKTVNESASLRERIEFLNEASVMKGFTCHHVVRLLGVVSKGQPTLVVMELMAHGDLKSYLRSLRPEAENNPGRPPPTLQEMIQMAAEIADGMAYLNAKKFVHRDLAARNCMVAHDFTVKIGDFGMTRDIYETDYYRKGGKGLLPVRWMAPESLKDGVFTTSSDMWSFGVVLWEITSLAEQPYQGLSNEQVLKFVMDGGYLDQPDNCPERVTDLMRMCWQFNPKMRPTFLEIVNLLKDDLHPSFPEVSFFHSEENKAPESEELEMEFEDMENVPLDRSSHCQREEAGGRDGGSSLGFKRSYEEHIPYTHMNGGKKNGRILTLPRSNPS
Serine/threonine-protein kinase PAK 2 (Homo sapiens), sequence (Q13177 whole entry): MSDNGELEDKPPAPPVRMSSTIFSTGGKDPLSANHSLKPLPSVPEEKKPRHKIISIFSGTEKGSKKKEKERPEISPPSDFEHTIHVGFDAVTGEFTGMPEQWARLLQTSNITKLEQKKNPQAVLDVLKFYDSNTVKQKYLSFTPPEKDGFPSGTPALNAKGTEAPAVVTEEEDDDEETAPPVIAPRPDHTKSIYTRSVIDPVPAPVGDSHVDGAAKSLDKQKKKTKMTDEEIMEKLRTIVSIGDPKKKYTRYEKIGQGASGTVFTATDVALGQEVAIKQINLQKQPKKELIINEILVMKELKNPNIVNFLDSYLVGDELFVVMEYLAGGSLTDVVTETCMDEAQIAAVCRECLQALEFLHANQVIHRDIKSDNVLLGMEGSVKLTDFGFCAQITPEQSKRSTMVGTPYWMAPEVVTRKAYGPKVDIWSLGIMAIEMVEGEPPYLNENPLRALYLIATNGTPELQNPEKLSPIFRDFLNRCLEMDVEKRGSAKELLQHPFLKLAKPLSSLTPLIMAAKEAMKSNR
Serine/threonine-protein kinase Nek6 (Homo sapiens), sequence (Q9HC98 whole entry): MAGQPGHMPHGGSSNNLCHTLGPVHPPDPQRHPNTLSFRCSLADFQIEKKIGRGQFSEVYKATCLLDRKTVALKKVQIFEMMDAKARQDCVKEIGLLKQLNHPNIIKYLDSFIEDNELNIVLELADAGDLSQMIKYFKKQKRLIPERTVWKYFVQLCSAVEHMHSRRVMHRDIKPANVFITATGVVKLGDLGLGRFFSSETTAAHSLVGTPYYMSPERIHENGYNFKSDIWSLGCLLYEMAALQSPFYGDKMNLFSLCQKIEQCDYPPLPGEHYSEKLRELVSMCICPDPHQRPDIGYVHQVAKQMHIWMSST

SMILES: Oc1n[nH]c2nnc(-c3c(-c4ccccc4)nn4ccccc34)cc12
- inhibition [1]: inactive
- inhibition [2]: inactive
- inhibition [3]: Active

- inhibition [4]: 0.03%
- inhibition [5]: -3.16%
- inhibition [6]: 3.48%
- inhibition [7]: 14.9%
- inhibition [8]: -2.07%
SMILES: C[C@]1(O)C[C@@H](c2nc(-c3ccc4ccc(-c5ccccc5)nc4c3)c3c(N)nccn32)C1

- inhibition [9]: -8.78%
- inhibition [10]: 0.1%
- inhibition [11]: 1.5%
- inhibition [12]: 1.81%
- inhibition [13]: -3.72%
- inhibition [14]: 6.1%
SMILES: C[C@@]1(C(=O)Nc2ccc(F)nc2)CCCN1c1nc(Nc2cc(C3CC3)n[nH]2)c2cccn2n1
